Source: patent US20160083733A1, “NOVEL TREATMENT OF METABOLIC DISEASES” (UNIVERSITY OF BREMEN, priority 2013, published 2016)
Where a SMILES comes first, the peptide text is derived from it. Where no end group is shown, it is not given here. The star is where a group is joined. Cbz = O=C(OCc1ccccc1)*

Columns and labels:
human islets = assay: Glucose stimulated insulin secretion (GSIS) in human islets; type: cell-based; details: Ad-MST1 72 h
Description: (§1) For acute insulin release in response to glucose, primary human and mouse islets and INS1 cells were washed and pre-incubated (30 min) in Krebs-Ringer bicarbonate buffer (KRB) containing 2.8 mM glucose and 0.5% BSA. KRB was then replaced by KRB 2.8 mM glucose for 1 h (basal), followed by an additional 1 h in KRB 16.7 mM glucose. Insulin content was extracted with 0.18N HCl in 70% ethanol. Insulin was determined using human and mouse insulin ELISA (ALPCO Diagnostics, Salem, N.H.). Secreted insulin was normalized to insulin content.

PDX1 target genes [1] = assay: RT-PCR of PDX1 target genes in INS-1E cells; type: cell-based, rat; details: INS-1E cells (FIG. 21 d)
Description: (§2) Total RNA was isolated from cultured human islets and INS1 cells using TRIzol (Invitrogen), and RT-PCR performed as described previously (Shu et al., Diabetologica 55 (2012), 3296-307). For analysis, the Applied Biosystems StepOne Real-Time PCR system (Applied Biosystems, CA, USA) with TaqMan® Fast Universal PCR Master Mix for TaqMan assays (Applied Biosystems) was used. TaqMan® Gene Expression Assays were used for pdx1 (Hs00426216_m1), SLC2A2 (Hs01096905_m1), GCK (Hs01564555_m1), insulin (Hs02741908_m1), PPIA (Hs99999904_m1) and tubulin (Hs00362387_m1) for human and PDX1 (Rn00755591_m1), SLC2A2 (Rn00563565_m1), GCK (Rn00688285_m1), INS1 (Rn02121433_g1), […] (Rn01774648_g1), BCL2L11 (Hs01083836_m1), PPIA (Rn00690933_m1) and tuba1a (Rn01532518_g1) for rat.

MST1 [2] = biological target: T1, MST1 (Homo sapiens, UniProt Q13043); assay: In vitro kinase assay, phosphorylation of PDX1 by recombinant MST1; type: biochemical
T1 construct: purchased Upstate Biotechnology
T1 sequence (Q13043 1-487): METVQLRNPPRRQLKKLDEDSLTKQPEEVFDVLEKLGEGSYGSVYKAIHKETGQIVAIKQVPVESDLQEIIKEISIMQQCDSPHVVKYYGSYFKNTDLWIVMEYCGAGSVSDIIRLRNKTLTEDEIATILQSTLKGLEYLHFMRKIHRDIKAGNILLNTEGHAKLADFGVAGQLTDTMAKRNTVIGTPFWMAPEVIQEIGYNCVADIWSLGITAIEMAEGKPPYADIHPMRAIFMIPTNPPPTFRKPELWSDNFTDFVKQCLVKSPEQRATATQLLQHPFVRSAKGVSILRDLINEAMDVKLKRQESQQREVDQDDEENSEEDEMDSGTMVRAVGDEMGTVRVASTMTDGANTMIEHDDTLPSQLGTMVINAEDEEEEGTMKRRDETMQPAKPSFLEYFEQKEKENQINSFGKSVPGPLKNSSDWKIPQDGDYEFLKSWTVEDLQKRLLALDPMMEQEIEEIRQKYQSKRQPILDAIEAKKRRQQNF
Description: For immunoprecipitation, cells were washed with PBS and lysed in cold buffer containing 20 mM Tris-HCl (pH 7.5), 150 mM NaCl, 0.27 M sucrose, 1 mM EDTA, 1 mM EGTA, 50 mM NaF, 1% NP-40, 5 mM sodium pyrophosphate and 10 mM β-glycerophosphate supplemented with proteinase/phosphatase inhibitors for 30 min on ice. Lysates were centrifuged at 12,000 g for 15 min at 4° C. prior to immunoprecipitation. Immunoprecipitations were carried out with incubating 0.5-1 mg of total lysate with rabbit anti-PDX1 (1:500), rabbit anti-MST1 (1:50), mouse anti-Myc (1:1000) and rabbit anti-GFP (1:1000) antibodies on a rotator at 4° C. overnight. Immunocomplexes were then captured with Protein A Agarose Fast Flow (Millipore) by rotation at 4° C. for 4 h. After five washes with cold lysis buffer, the immunoprecipitates were used for kinase assays or resuspended in sample buffer and separated by NuPAGE 4-12% Bis-Tris gels (Invitrogen).
Purified human active MST1 (Upstate Biotechnology) was incubated with ^32P-ATP (2 μCi, Perkin Elmer Life Sciences), ATP (100 μM) and 1 mM dithiothreitol (DTT) in a kinase buffer containing 40 mM HEPES (pH 7.4), 20 mM MgCl2, 1 mM EDTA and 1 μg of purified recombinant human PDX-1 (Abcam) or bacterially purified GST-PDX1 (WT and mutants) as substrates. After incubation at 30° C. for 30 min, the reaction was stopped by adding loading buffer and proteins were separated on NuPAGE gels and phosphorylation levels visualized either by autoradiography or specific antibody for phospho-PDX1. The total PDX1 was detected with anti-PDX1 antibody.
Expression and induction of recombinant GST proteins were performed as described previously (Tolia et al., Nat. Methods 3 (2006), 55-64). Escherichia coli BL21 cells with various GST-fusion expression plasmids were cultured at 37° C. and expression of recombinant proteins was induced by 0.1 mM final concentration of Isopropyl-β-D-thio-galactoside (IPTG; sigma) for 2.5 h. Cells were lysed using B-PER bacterial protein extraction reagent (Pierce) and purified using Glutathione Spin Columns (Pierce).

PDX1 target genes [3] = assay: RT-PCR of PDX1 target genes in human islets; type: cell-based; details: human islets (FIG. 15 q)
Description: as §2

PDX1 [4] = assay: PDX1 protein level, degradation and ubiquitination in HEK293 cells co-transfected with MST1; type: cell-based, mouse
Description: pCMV-myc-MST1 and kinase-dead (MST1-K59; dnMST1) are described in Yamamoto et al., J. Clin. Invest. 111 (2003), 1463-1474. Mouse pB.RSV.PDX1-GFP is described in Kawamori et al., Diabetes 52 (2003) 2896-2904. pcDNA3 Myr-HA Akt1, HA-Ubiquitin and pCDNA3 Jnk1a1 (apf)(dn-JNK) plasmids were obtained from Addgene (Cambridge, Mass.). Mouse PDX1 mutants (T11, T126, T152, T155, T214 and T231) in pCGIG5 vector were generated by site-directed mutagenesis as described previously (Frogne et al., 7 (2012), e35233). All mutations were verified by sequencing. To make bacterial expression plasmids for PDX1 mutants, the complete mouse PDX1 CDS (wild type and mutants) has been amplified by PCR using a specific set of primers from pCGIG5 plasmids and cloned into a pGEX-6P-1 bacterial expression vector. The rat insulin driven luciferase vector (RIP-Luc) was constructed by subcloning a 700 by fragment containing −660 bp of the rat 2 insulin promoter into a pMCS-Green-Renilla-Luc vector (Thermo Scientific). pCMV-Red firefly Luc vector was obtained from Thermo Scientific.
HEK293 cells were cultured in 10-cm cell culture dishes and transfected with HA-ubiquitin, PDX1 and MST1 expression plasmids for 48 h. For ubiquitination in human islets, 5000 islets per condition were transfected with ubiquitin plasmid. After 24 h, islets were infected with Ad-GFP or Ad-MST1 for 6 h and kept for another 48 h. […] Lysates were immunoprecipitated with PDX1-specific antibody overnight at 4° C. Immunocomplexes were then captured with Protein A Agarose by rotation at 4° C. for 4 h. After extensive washing, immunoprecipitates were boiled in sample buffer and proteins subjected to western blotting with ubiquitin-specific antibody.
HEK293 cells were transfected with PDX1 alone, or together with MST1 expressing-plasmids. Human islets were infected with Ad-GFP (control) or Ad-MST1. At 48 h after post-transfection/infection, cells were treated with 50 μg/ml translation initiation inhibitor cycloheximde (CHX) to the medium at the times indicated and the lysates were subjected to western blotting.

PDX1 [5] = assay: Luciferase reporter assay of PDX1 transcriptional activity (rat Ins2-Luc) in HEK293 cells; type: cell-based; details: HEK293, 48 h
Description: The transcriptional activity of the PDX1 at promoter level was evaluated using rat Ins2-Luc renilla reporter gene HEK293 cells were transfected with Ins2-Luc renilla, pCMV-firefly, PDX1-WT or PDX1-T11A, alone or together with Myc-MST1 expressing plasmids for 48 h. INS-1E cells transfected with Ins2-Luc renilla and pCMV-firefly plasmids and were infected with Ad-GFP or Ad-MST1 for 48 h. Luciferase activity determined using the Renilla-Firefly Luciferase Dual Assay Kit according to the manufacturer's instructions (Pierce). pCMV-firefly was used as transfection control.

INS-1E cells = assay: Glucose stimulated insulin secretion (GSIS) in INS-1E cells; type: cell-based, rat; details: Ad-MST1 72 h
Description: as §1

MST1 [6] = assay: MST1 activation and AKT signalling in INS-1E cells and human islets, western blotting; type: cell-based, rat; details: for glucose- and cytokine-induced P-MST1, MST1-cleavage and apoptosis: INS-1E cells, 72 h, GLP1 and insulin 100 nM
Description: Islet purity was greater than 95% as judged by dithizone staining (if this degree of purity was not achieved by routine isolation, islets were handpicked). Islets from MST1^−/− mice and their WT littermates were isolated as described previously (Schulthess et al., Cell. Metab. 9 (2009) 125-139). Pancreata were perifused with a Liberase™ (#05401119001, Roche, Mannheim, Germany) solution according to the manufacturer's instructions and digested at 37° C., followed by washing and handpicking Human islets were cultured in complete CMRL-1066 (Invitrogen) medium at 5.5 mM glucose and mouse islets and INS-1E cells at complete RPMI-1640 medium at 11.1 mM glucose and HEK293 cells were cultured in Dulbecco's modified Eagle's medium (DMEM). All media included with glutamate, 1% penicillin-streptomycin and 10% fetal bovine serum (FBS, all PAA). INS-1E medium was supplemented with 10 mM HEPES, 1 mM sodium pyruvate and 50 μM β-mercaptoethanol. Islets and INS-1E were exposed to complex diabetogenic conditions: 22.2-33.3 mM glucose, 0.5 mM palmitic acid, the mixture of 2 ng/ml recombinant human IL-1β (R&D Systems, Minneapolis, Minn.)+1,000 U/ml recombinant human IFN-γ (PeProTech) for 72 h, 100 μM H2O2 for 6 h, 1 mM streptozotocin (STZ) for 8 h or 1 mM thapsigargin for 6 h (all Sigma).
At the end of the incubation periods, islets and INS1E cells were washed in ice-cold PBS and lysed in lysis buffer containing 20 mM Tris acetate, 0.27 M sucrose, 1 mM EDTA, 1 mM EGTA, 50 mM NaF, 1% Triton X-100, 5 mM sodium pyrophosphate and 10 mM β-glycerophosphate. Prior to use, the lysis buffer was supplemented with Protease- and Phosphatase-inhibitors (Pierce, Rockford, Ill., USA). Protein concentrations were determined with the BCA protein assay (Pierce). Equivalent amounts of protein from each treatment group were run on a NuPAGE 4-12% Bis-Tris gel (Invitrogen) and electrically transferred onto PVDF membranes. […] Membrane was developed using a chemiluminescence assay system (Pierce) and analyzed using DocIT®LS image acquisition 6.6a (UVP BioImaging Systems, Upland, Calif., USA).

PDX1-T11A: mutant PDX1 with amino acid Thr11 substituted to alanine, inert to phosphorylation by MST1
MST1-induced impairment in GSIS (human islets): normalized
MST1-induced down regulation of PDX1 target genes (PDX1 target genes [1]): restored
phosphorylation by recombinant MST1 of PDX1 immunoprecipitated from HEK293 cells (MST1 [2]; all PDX1 mutants transfected into HEK293): markedly decreased
MST1-induced phosphorylation at the Thr11 site and overall Thr-phosphorylation (MST1 [2]; p-T11 and pan-Threonine antibodies, immunoprecipitated PDX1): markedly reduced
threonine phosphorylation of PDX1-GST fusion proteins by MST1 (MST1 [2]; proteins purified from bacteria, pan-phospho threonine antibody): exception
MST1-induced down regulation of PDX1 target genes (PDX1 target genes [3]): restored
MST1-induced rapid degradation of PDX1 in the presence of CHX (PDX1 [4]; 50 μg/ml CHX): did not occur
PDX1 levels in presence of MST1 (PDX1 [4]; HEK293 cells, 48 h): does not decrease
PDX1 ubiquitination (PDX1 [4]; HEK293 cells, HA-ubiquitin, 48 h, MG-132 last 6 h): less
Reduction of PDX1 transcriptional activity by MST1 (PDX1 [5]): not
MST1-induced impairment in GSIS (INS-1E cells): normalized

CC(C)C[C@@H](C=O)NC(=O)[C@H](CC(C)C)NC(=O)[C@H](CC(C)C)NC(=O)OCc1ccccc1 [MG-132, reference compound] (Cbz-Leu-Leu-Leu-aldehyde)
disappearance of PDX1 (PDX1 [4]; PDX1 overexpressing HEK293 cells with MST1, MG-132 50 μM for 6 h): abolished

insulin: recombinant human insulin
glucose- and cytokine-induced P-MST1, MST1-cleavage and apoptosis (MST1 [6]): inhibited

GLP1: Glucagon like-peptide 1 (Sigma), exogenously added mitogen (HAEGTFTSDVSSYLEGQAAKEFIAWLVKGR; ends and bridges not checked; UniProt P01275 98-127, looked up)
glucose- and cytokine-induced P-MST1, MST1-cleavage and apoptosis (MST1 [6]): inhibited

z-DEVD-fmk
stress-induced MST1 cleavage by diabetic stimuli (MST1 [6]; human islets and INS-1E cells): JNK and caspase-3 were responsible for stress-induced MST1 cleavage
